This is an account of results in patent US8637664B2, “Alkyl 4- [4- (5-oxo-2,3,5, 11a-tetrahydo-5H-pyrrolo [2, 1-c] [1,4] benzodiazepine-8-yloxy)-butyrylamino]-1H-pyrrole-2-carboxylate derivatives and related compounds for the treatment of a proliferative disease” (Spirogen SARL, priority 2005, dated 2014).

One assay relates to calf thymus DNA (CT-DNA). Kind of assay: DNA thermal denaturation (melting) studies. To be noted: CT-DNA 100 μM DNAp, compound 20 μM, 37 °C; for Induced ΔTm after incubation 0 hours: pH 7.00, 0 hours; for Induced ΔTm after incubation 4 hours: pH 7.00, 4 hours; for Induced ΔTm after incubation 18 hours: pH 7.00, 18 hours; for Induced ΔTm after incubation 72 hours: pH 7.00, 72 hours. The format is binding. Here is the method: The PBD agents were subjected to DNA thermal melting (denaturation) studies (Gregson, S. J., et al., Journal of Medicinal Chemistry, 44(5), 737-748 (2001); Jones, G. B., et al., Anti-Cancer Drug Design, 5(3), 249-264 (1990); McConnaughie, A. W. and; Jenkins, T. C. Journal of Medicinal Chemistry, 38(18), 3488-3501 (1995)) using calf thymus DNA (CT-DNA, type-1, highly polymerized sodium salt; 42% G+C [Sigma]) at a fixed 100 μM (DNAp=50 μM bp) concentration, determined using an extinction coefficient of 6600 (M phosphate)^−1 cm^−1 at 260 nm (Manzini, G., et al., Nucleic Acids Research, 11(24), 8861-8876 (1983)). Solutions were prepared in pH 7.00±0.01 aqueous buffer containing 10 mM NaH2PO4/Na2HPO4 and 1 mM EDTA. Working solutions containing CT-DNA and the test compound (20 μM) were incubated at 37.0±0.1° C. for 0 to 18 hours using an external water bath. Samples were monitored at 260 nm using a Varian-Cary 400 Bio spectrophotometer fitted with a Peltier heating accessory. Heating was applied at a rate of 1° C./min in the 45 to 98° C. temperature range, with optical and temperature data sampling at 200 ms intervals. A separate experiment was carried out using buffer alone, and this baseline was subtracted from each DNA melting curve before data treatment. Optical data were imported into the Origin 5 program (MicroCal Inc., Northampton, Mass.) for analysis. DNA helix→coil transition temperatures (Tm) were determined at the midpoint of the normalized melting profiles using a published analytical procedure (Jones, G. B., et al., Anti-Cancer Drug Design, 5(3), 249-264 (1990)). Results are given in table 1 as the mean±standard deviation from at least three determinations. Ligand-induced alterations in DNA melting behaviour (ΔTm) are given by ΔTm=Tm(DNA+ligand)−Tm(DNA), where the Tm value determined for free CT-DNA is 67.82±0.06° C. (averaged from >90 runs). All PBD compounds were dissolved in HPLC-grade MeOH to give working solutions containing ≦0.6% v/v MeOH; Tm results were corrected for the effects of MeOH co-solvent by using a linear correction term.
The above method was also carried out on the compounds of example 2, with all compounds being incubated for up to 72 hours.

Assay [1] has as its system NF-Y binding at ICB2 of Topoisomerase IIα promoter. The assay is described as follows: NF-Y gel shift assay (EMSA) at ICB2. (In general: In EMSA bound probe runs differently from free probe, usually more slowly.)

`COC(=O)c1cc(NC(=O)c2csc(NC(=O)CCCOc3cc4c(cc3OC)C(=O)N3CCC[C@H]3C=N4)n2)cn1C` [Compound 55]: in the assay with calf thymus DNA (CT-DNA), the “Induced ΔTm after incubation 0 hours” value stood at 14.5 °C, the “Induced ΔTm after incubation 4 hours” value was 15.2 °C, the “Induced ΔTm after incubation 18 hours” value is 15.8 °C and the “Induced ΔTm after incubation 72 hours” value is 16.1 °C.

Turning to `CCOC(=O)c1nc(NC(=O)c2cc(NC(=O)CCCOc3cc4c(cc3OC)C(=O)N3CCC[C@H]3C=N4)cn2C)cn1C` [Compound 65, (11aS) Ethyl 4-({4-[4-(7-Methoxy-5-oxo-2,3,5,11a-tetrahydro-5H-pyrrolo[2,1-c][1,4]benzodiazepine-8-yloxy)-butyrylamino]-1-methyl-1H-pyrrole-2-carbonyl}-amino)-1-methyl-1H-imidazole-2-carboxylate], in the assay on calf thymus DNA (CT-DNA), the “Induced ΔTm after incubation 0 hours” value worked out at 10.0 °C, the “Induced ΔTm after incubation 4 hours” value amounted to 10.7 °C, the “Induced ΔTm after incubation 18 hours” value came to 11.2 °C and the “Induced ΔTm after incubation 72 hours” value worked out at 11.3 °C.

Consider `CCOC(=O)c1csc(NC(=O)c2csc(NC(=O)c3csc(NC(=O)CCCOc4cc5c(cc4OC)C(=O)N4CCC[C@H]4C=N5)n3)n2)n1` [Compound 83], for which, in the assay with calf thymus DNA (CT-DNA), the “Induced ΔTm after incubation 0 hours” value came to 10.0 °C, the “Induced ΔTm after incubation 4 hours” value stood at 10.7 °C, the “Induced ΔTm after incubation 18 hours” value is 10.9 °C and the “Induced ΔTm after incubation 72 hours” value came out at 11.0 °C.

With `CCOC(=O)c1nc(NC(=O)c2nc(NC(=O)c3nc(NC(=O)CCCOc4cc5c(cc4OC)C(=O)N4CCC[C@H]4C=N5)cn3C)cn2C)cn1C` [Compound 77], in the assay with calf thymus DNA (CT-DNA), the “Induced ΔTm after incubation 0 hours” value amounted to 11.0 °C, the “Induced ΔTm after incubation 4 hours” value came to 11.7 °C, the “Induced ΔTm after incubation 18 hours” value came out at 12.0 °C and the “Induced ΔTm after incubation 72 hours” value amounted to 12.1 °C. The “Lowest concentration at which NF-Y binding inhibition was observed” value in assay [1] came out at 50 µM.

On to `CCOC(=O)c1nc(NC(=O)c2cc(NC(=O)c3cc(NC(=O)CCCOc4cc5c(cc4OC)C(=O)N4CCC[C@H]4C=N5)cn3C)cn2C)cn1C` [Compound 79], for which, in the assay with calf thymus DNA (CT-DNA), the “Induced ΔTm after incubation 0 hours” value is 13.9 °C, the “Induced ΔTm after incubation 4 hours” value turned out to be 14.8 °C, the “Induced ΔTm after incubation 18 hours” value turned out to be 15.2 °C and the “Induced ΔTm after incubation 72 hours” value is 15.5 °C.

In the case of `CCOC(=O)c1csc(NC(=O)c2cc(NC(=O)c3csc(NC(=O)CCCOc4cc5c(cc4OC)C(=O)N4CCC[C@H]4C=N5)n3)cn2C)n1` [Compound 87], in the assay on calf thymus DNA (CT-DNA), the “Induced ΔTm after incubation 0 hours” value was found to be 6.4 °C, the “Induced ΔTm after incubation 4 hours” value turned out to be 6.8 °C, the “Induced ΔTm after incubation 18 hours” value was determined as 7.1 °C and the “Induced ΔTm after incubation 72 hours” value was 7.3 °C.

For the molecule `CCOC(=O)c1csc(NC(=O)c2csc(NC(=O)CCCOc3cc4c(cc3OC)C(=O)N3CCC[C@H]3C=N4)n2)n1` [Compound 61, (11aS) Ethyl 2-({2-[4-(7-Methoxy-5-oxo-2,3,5,11a-tetrahydro-5H-pyrrolo[2,1-c][1,4]benzodiazepine-8-yloxy)-butyrylamino]-thiazole-4-carbonyl}-amino)-thiazole-4-carboxylate], in the assay with calf thymus DNA (CT-DNA), the “Induced ΔTm after incubation 0 hours” value is 7.7 °C, the “Induced ΔTm after incubation 4 hours” value is 8.0 °C, the “Induced ΔTm after incubation 18 hours” value worked out at 8.3 °C and the “Induced ΔTm after incubation 72 hours” value is 8.4 °C.

With `CCOC(=O)c1csc(NC(=O)c2csc(NC(=O)c3cc(NC(=O)CCCOc4cc5c(cc4OC)C(=O)N4CCC[C@H]4C=N5)cn3C)n2)n1` [Compound 85], in the assay with calf thymus DNA (CT-DNA), the “Induced ΔTm after incubation 0 hours” value amounted to 7.5 °C, the “Induced ΔTm after incubation 4 hours” value was found to be 8.0 °C, the “Induced ΔTm after incubation 18 hours” value was 8.4 °C and the “Induced ΔTm after incubation 72 hours” value came to 8.4 °C.

Turning to `COC(=O)c1cc(NC(=O)c2nc(NC(=O)c3nc(NC(=O)CCCOc4cc5c(cc4OC)C(=O)N4CCC[C@H]4C=N5)cn3C)cn2C)cn1C` [Compound 75], in the assay with calf thymus DNA (CT-DNA), the “Induced ΔTm after incubation 0 hours” value came to 14.3 °C, the “Induced ΔTm after incubation 4 hours” value came out at 15.0 °C, the “Induced ΔTm after incubation 18 hours” value is 15.4 °C and the “Induced ΔTm after incubation 72 hours” value was 15.6 °C.

As for `COC(=O)c1cc(NC(=O)c2nc(NC(=O)CCCOc3cc4c(cc3OC)C(=O)N3CCC[C@H]3C=N4)cn2C)cn1C` [Compound 57, (11aS) Methyl 4-({4-[4-(7-Methoxy-5-oxo-2,3,5,11a-tetrahydro-5H-pyrrolo[2,1-c][1,4]benzodiazepine-8-yloxy)-butyrylamino]-1-methyl-1H-imidazole-2-carbonyl}-amino)-1-methyl-1H-pyrrole-2-carboxylate], in the assay on calf thymus DNA (CT-DNA), the “Induced ΔTm after incubation 0 hours” value worked out at 2.8 °C, the “Induced ΔTm after incubation 4 hours” value amounted to 3.0 °C, the “Induced ΔTm after incubation 18 hours” value stood at 3.1 °C and the “Induced ΔTm after incubation 72 hours” value came out at 3.2 °C.

On to `CCOC(=O)c1nc(NC(=O)c2nc(NC(=O)CCCOc3cc4c(cc3OC)C(=O)N3CCC[C@H]3C=N4)cn2C)cn1C` [Compound 59, (11aS) Ethyl 4-({4-[4-(7-Methoxy-5-oxo-2,3,5,11a-tetrahydro-5H-pyrrolo[2,1-c][1,4]benzodiazepine-8-yloxy)-butyrylamino]-1-methyl-1H-imidazole-2-carbonyl}-amino)-1-methyl-1H-imidazole-2-carboxylate], for which, in the assay on calf thymus DNA (CT-DNA), the “Induced ΔTm after incubation 0 hours” value is 10.3 °C, the “Induced ΔTm after incubation 4 hours” value amounted to 10.9 °C, the “Induced ΔTm after incubation 18 hours” value turned out to be 11.4 °C and the “Induced ΔTm after incubation 72 hours” value was 11.4 °C.

For the molecule `CCOC(=O)c1csc(NC(=O)c2cc(NC(=O)c3cc(NC(=O)CCCOc4cc5c(cc4OC)C(=O)N4CCC[C@H]4C=N5)cn3C)cn2C)n1` [Compound 89], in the assay on calf thymus DNA (CT-DNA), the “Induced ΔTm after incubation 0 hours” value came to 16.8 °C, the “Induced ΔTm after incubation 4 hours” value is 17.7 °C, the “Induced ΔTm after incubation 18 hours” value was found to be 18.6 °C and the “Induced ΔTm after incubation 72 hours” value worked out at 18.8 °C.

On to `CCOC(=O)c1nc(NC(=O)c2cc(NC(=O)c3nc(NC(=O)CCCOc4cc5c(cc4OC)C(=O)N4CCC[C@H]4C=N5)cn3C)cn2C)cn1C` [Compound 81], for which, in the assay with calf thymus DNA (CT-DNA), the “Induced ΔTm after incubation 0 hours” value was 14.9 °C, the “Induced ΔTm after incubation 4 hours” value worked out at 15.7 °C, the “Induced ΔTm after incubation 18 hours” value turned out to be 16.2 °C and the “Induced ΔTm after incubation 72 hours” value turned out to be 16.4 °C.

Turning to `CCOC(=O)c1csc(NC(=O)c2cc(NC(=O)CCCOc3cc4c(cc3OC)C(=O)N3CCC[C@H]3C=N4)cn2C)n1` [Compound 63, (11aS) Ethyl 2-({4-[4-(7-Methoxy-5-oxo-2,3,5,11a-tetrahydro-5H-pyrrolo[2,1-c][1,4]benzodiazepine-8-yloxy)-butyrylamino]-1-methyl-1H-pyrrole-2-carbonyl}-amino)-thiazole-4-carboxylate], in the assay with calf thymus DNA (CT-DNA), the “Induced ΔTm after incubation 0 hours” value worked out at 9.3 °C, the “Induced ΔTm after incubation 4 hours” value worked out at 9.6 °C, the “Induced ΔTm after incubation 18 hours” value stood at 10.2 °C and the “Induced ΔTm after incubation 72 hours” value worked out at 10.5 °C.
